This is an account of results in article PMC5321205 (Journal of medicinal chemistry, 2016).

Data set [1] deals with α1-acid glycoprotein (AGP). Description: SPR. A general note: In SPR one partner is held on a chip, and binding of the other changes the refractive index at the surface.
The target in data set [2] is human serum albumin (HSA) (Homo sapiens, UniProt P02768). Description: SPR.
The target in data set [3] is T1, hCB2R (Homo sapiens, UniProt P34972). Description: cAMP determination assay, forskolin-stimulated HEK293-CB2R cells. The settings on record: for effect on forskolin-stimulated cAMP accumulation, preliminary screening: 200 nM and 1 μM; for effect on forskolin-stimulated cAMP accumulation, preliminary screening / CB2 functional profile in cAMP assay: HEK293-CB2R cells; for CB2R antagonism of CP55,940 effect in cAMP assay: CP55,940 100 nM and 1 μM, compound at 200 nM (31 also at 1 μM). (In general: cAMP levels reflect the balance of adenylyl cyclase and phosphodiesterase activity.)
T1 sequence (P34972 whole entry): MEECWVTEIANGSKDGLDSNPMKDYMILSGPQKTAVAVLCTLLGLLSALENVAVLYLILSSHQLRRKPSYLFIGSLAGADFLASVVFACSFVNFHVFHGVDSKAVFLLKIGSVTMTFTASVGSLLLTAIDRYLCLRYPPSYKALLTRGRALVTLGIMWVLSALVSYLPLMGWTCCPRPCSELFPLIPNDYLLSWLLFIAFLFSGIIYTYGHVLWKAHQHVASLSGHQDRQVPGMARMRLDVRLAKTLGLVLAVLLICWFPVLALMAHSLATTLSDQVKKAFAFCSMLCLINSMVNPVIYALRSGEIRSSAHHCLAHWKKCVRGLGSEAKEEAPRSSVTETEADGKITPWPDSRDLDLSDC

The target of data set [4] is human CB2 (hCB2) cannabinoid receptor (Homo sapiens, UniProt P34972). The data set is described as follows: [3H]-CP55,940 radioligand competition binding, hCB2 membranes. (In general: Displacement assays read how much labelled ligand stays bound in the presence of the test substance.)
Chain of human CB2 (hCB2) cannabinoid receptor (P34972 whole entry): as above
Data set [5] addresses human CB1 (hCB1) cannabinoid receptor (Homo sapiens, UniProt P21554). The data set is described as follows: biochemical. It is filed as binding.
Data set [6] addresses T1, hCB2R. Description: [35S]-GTPγS binding assay, CB2R-containing membranes.
Data set [7] has as its target human CB1 receptor (Homo sapiens, UniProt P21554). It is filed as biochemical.

Chain of human serum albumin (HSA) (P02768 25-609): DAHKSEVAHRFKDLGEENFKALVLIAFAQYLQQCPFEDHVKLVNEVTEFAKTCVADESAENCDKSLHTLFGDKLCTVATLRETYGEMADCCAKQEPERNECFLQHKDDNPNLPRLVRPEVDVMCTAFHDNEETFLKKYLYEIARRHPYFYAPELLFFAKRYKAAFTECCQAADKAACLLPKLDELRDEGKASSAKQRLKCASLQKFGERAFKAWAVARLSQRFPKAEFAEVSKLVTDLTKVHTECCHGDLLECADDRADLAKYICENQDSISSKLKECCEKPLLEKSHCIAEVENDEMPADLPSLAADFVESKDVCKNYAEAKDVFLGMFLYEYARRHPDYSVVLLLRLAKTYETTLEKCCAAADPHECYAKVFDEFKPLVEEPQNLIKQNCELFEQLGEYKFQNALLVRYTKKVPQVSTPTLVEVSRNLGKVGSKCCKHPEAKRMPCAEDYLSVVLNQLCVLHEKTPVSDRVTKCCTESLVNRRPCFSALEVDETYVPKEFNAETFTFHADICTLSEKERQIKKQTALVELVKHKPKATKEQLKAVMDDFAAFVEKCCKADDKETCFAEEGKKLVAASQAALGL
Chain of human CB1 (hCB1) cannabinoid receptor (P21554 whole entry): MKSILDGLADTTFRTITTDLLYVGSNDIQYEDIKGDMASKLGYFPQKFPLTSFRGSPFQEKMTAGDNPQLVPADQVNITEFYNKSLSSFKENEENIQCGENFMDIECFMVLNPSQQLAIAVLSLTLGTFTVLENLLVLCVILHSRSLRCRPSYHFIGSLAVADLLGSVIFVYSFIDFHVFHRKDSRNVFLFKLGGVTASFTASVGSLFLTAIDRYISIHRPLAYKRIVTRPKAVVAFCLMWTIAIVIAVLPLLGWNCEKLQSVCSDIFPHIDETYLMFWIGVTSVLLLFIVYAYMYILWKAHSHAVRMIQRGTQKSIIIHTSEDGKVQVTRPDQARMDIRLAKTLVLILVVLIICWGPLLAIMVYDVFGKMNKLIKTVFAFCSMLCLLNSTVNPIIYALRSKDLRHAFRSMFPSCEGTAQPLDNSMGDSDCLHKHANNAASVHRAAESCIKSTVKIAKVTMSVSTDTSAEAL
Chain of human CB1 receptor (P21554 whole entry): as above

Take `CCCCC/C=C\C/C=C\C/C=C\C/C=C\CCCC(=O)OC(CO)CO` [Compound 2-AG, 2-arachidonoylglycerol, reference compound]: the AGP binding level entry in data set [1] is “very high”. For the same compound, the HSA binding level entry in data set [2] is recorded as “high”.

On to `CCCCCCC(C)(C)c1cc(OCCO)c2c(c1)OC(C)(C)c1cn(CC)nc1-2` [Compound 36, 7-(1,1-Dimethylheptyl)-2-ethyl-2,4-dihydro-9-(2-hydroxyethoxy)-4,4-dimethylchromeno[4,3-c]pyrazole], for which the AGP binding level result in data set [1] is reported as “very high”. Also, the HSA binding level entry in data set [2] was “very high”.

As to `CCCCCCC(C)(C)c1cc(OC)c2c(c1)OC(C)(C)c1cn(CC)nc1-2` [Compound 18, 7-(1,1-Dimethylheptyl)-2-ethyl-2,4-dihydro-9-methoxy-4,4-dimethylchromeno[4,3-c]pyrazole], the AGP binding level result in data set [1] was “very high”. Further, the HSA binding level entry in data set [2] was “very high”. Also, in data set [3], the “effect on forskolin-stimulated cAMP accumulation, preliminary screening” value (“effect … preliminary screening” for short) is “low to high inhibition” and the “CB2 functional profile in cAMP assay” value is listed as “partial or weak agonists”.

Regarding `CCCCCCC(C)(C)c1cc2c(c3c1CCCO3)-c1c(cnn1CC)C(C)(C)O2` [Compound 40, 7-(1,1-Dimethylheptyl)-1-ethyl-1,4,9,10-tetrahydro-4,4-dimethyl-8H-pyrano[2′,3′:5,6]chrome-no[4,3-c]pyrazole], the AGP binding level result in data set [1] is on record as “medium”. Further, the HSA binding level result in data set [2] is “medium”.

Consider `CCCCCCC(C)(C)c1cc(OCCBr)c2c(c1)OC(C)(C)c1cnn(CC)c1-2` [Compound 39, 9-(2-Bromoethoxy)-7-(1,1-dimethylheptyl)-1-ethyl-1,4-dihydro-4,4-dimethylchromeno[4,3-c]pyrazole], for which the AGP binding level entry in data set [1] is recorded as “medium”. In data set [4], the affinity corresponds to a Ki of 78.7 ± 11.3 nM. Further, in data set [2], the HSA binding level result is “medium”. Moreover, the inhibition constant (Ki) (usually the dissociation constant of the complex between target and ligand, obtained from inhibition or displacement) in data set [5] stood at 1330 ± 320 nM. Besides, in data set [3], the “effect … preliminary screening” value is recorded as “low to high inhibition” and the “CB2 functional profile in cAMP assay” value is on record as “partial or weak agonists”.

With `CCCCCCC(C)(C)c1cc(OC)c2c(c1)OC(C)(C)c1cnoc1-2` [Compound 43, 7-(1,1-Dimethylheptyl)-9-methoxy-4,4-dimethyl-4H-chromeno-[3,4-d]isoxazole], the half-inhibitory concentration (IC50) (in general, the concentration that inhibits the measured activity by half) in data set [6] was determined as 38.6 ± 6.7 nM. Also, in data set [1], the AGP binding level entry is “medium”. Moreover, in data set [2], the HSA binding level entry is on record as “medium”.

For the compound `CCCCCCC(C)(C)c1cc(OCCCO)c2c(c1)OC(C)(C)c1cn(CC)nc1-2` [Compound 31, 7-(1,1-Dimethylheptyl)-2-ethyl-2,4-dihydro-9-(3-hydroxypropoxy)-4,4-dimethylchromeno-[4,3-c]pyrazole], in data set [3], the “effect … preliminary screening” value was “no effect” and the “CB2R antagonism of CP55,940 effect in cAMP assay” value (shortened to “CB2R antagonism”) is recorded as “behaved as the CP55,940 antagonist only at the highest concentration”.

Consider `CCCCCCC(C)(C)c1cc(O)c2c(c1)OC(C)(C)c1cnoc1-2` [Compound 42, 7-(1,1-Dimethylheptyl)-4,4-dimethyl-4H-chromeno[3,4-d]-isoxazol-9-ol], for which the 50% inhibitory concentration (IC50) in data set [6] stood at 50.2 ± 24.9 nM. Moreover, in data set [1], the AGP binding level result is listed as “very high”. Moreover, in data set [7], the “fold more potent than 10b and 22 in [35S]-GTPγS binding (CB1R)” value is on record as “at least 10 fold”. The HSA binding level result in data set [2] was “very high”.

`CCCCCCC(C)(C)c1cc(OCCCBr)c2c(c1)OC(C)(C)c1cn(C)nc1-2` [Compound 37, 9-(3-Bromopropoxy)-7-(1,1-dimethylheptyl)-2,4-dihydro-2,4,4-trimethylchromeno[4,3-c]py-razole]: the AGP binding level result in data set [1] is on record as “very high”. The HSA binding level result in data set [2] is “very high”. Moreover, in data set [3], the “effect … preliminary screening” value is given as “low to high inhibition” and the “CB2 functional profile in cAMP assay” value was “partial or weak agonists”.

Regarding `CCCCCCC(C)(C)c1cc(OCc2ccccc2)c2c(c1)OC(C)(C)c1cn[nH]c1-2` [Compound 22, 9-Benzyloxy-2,4-dihydro-7 - (1,1-di m ethylheptyl)-4,4 - dimethylchromeno[4,3-c]pyrazole], in data set [3], the “effect … preliminary screening” value is “low to high inhibition” and the “CB2 functional profile in cAMP assay” value is given as “partial or weak agonists”.

For the compound `CCCCCCC(C)(C)c1cc(OC)c2c(c1)OC(C)(C)c1cnn(CC)c1-2` [Compound 17, 7-(1,1-Dimethylheptyl)-1-ethyl-1,4-dihydro-9-methoxy-4,4-dimethylchromeno[4,3-c]pyrazole], in data set [3], the “effect … preliminary screening” value is reported as “low to high inhibition” and the “CB2 functional profile in cAMP assay” value is given as “partial or weak agonists”.

`CCCCCCC(C)(C)c1cc(OCCCO)c2c(c1)OC(C)(C)c1cnoc1-2` [Compound 44, 7-(1,1-Dimethylheptyl)-9-(3-hydroxypropoxy)-4,4-dimethyl-4H-chromeno[3,4-d]isoxazole] displayed an IC50 in data set [6] of 540 ± 208 nM.

`CCCCCCC(C)(C)c1cc(OCCO)c2c(c1)OC(C)(C)c1cn(C)nc1-2` [Compound 35, 7-(1,1-Dimethylheptyl)-2,4-dihydro-9-(2-hydroxyethoxy)-2,4,4-trimethylchromeno[4,3-c]py-razole]: in data set [3], the “effect … preliminary screening” value is recorded as “no effect” and the “CB2R antagonism” value is recorded as “able to antagonize the effect of the cannabinoid agonist CP55,940”.

In data set [6], `CCCCCCC(C)(C)c1cc(OCCO)c2c(c1)OC(C)(C)c1cn[nH]c1-2` [Compound 34, 7-(1,1-Dimethylheptyl)-2,4-dihydro-9-(2-hydroxyethoxy)-4,4-dimethylchromeno[4,3-c]pyra-zole] showed a half-maximal inhibitory concentration (IC50) of 95.1 ± 7.2 nM. Also, in data set [3], the “effect … preliminary screening” value is “low to high inhibition” and the “CB2 functional profile in cAMP assay” value was “potent CB2 agonists”.

For `CCCCCCC(C)(C)c1cc(OC)c2c(c1)OC(C)(C)c1cn(C)nc1-2` [Compound 16, 7-(1,1-Dimethylheptyl)-2,4-dihydro-9-methox y-2,4,4-trimethylchromeno[4,3-c]pyrazole], in data set [3], the “effect … preliminary screening” value is on record as “no effect” and the “CB2R antagonism” value is on record as “able to antagonize the effect of the cannabinoid agonist CP55,940”.

For `CCCCCCC(C)(C)c1cc(OCCCO)c2c(c1)OC(C)(C)c1cn[nH]c1-2` [Compound 28, 7-(1,1-Dimethylheptyl)-2,4-dihydro-9-(3-hydroxypropoxy)-4,4-dimethylchromeno[4,3-c]pyrazole], the AGP binding level result in data set [1] is given as “very high”. Also, in data set [2], the HSA binding level result is “very high”. In addition, in data set [3], the “effect … preliminary screening” value was “low to high inhibition” and the “CB2 functional profile in cAMP assay” value was “partial or weak agonists”.

Take `CCCCC/C=C\C/C=C\C/C=C\C/C=C\CCCC(=O)NCCO` [AEA, anandamide, reference compound]: the AGP binding level result in data set [1] is “very high”.

Turning to `C=C(C)[C@@H]1CCC(C)=C[C@H]1c1c(O)cc(CCCCC)cc1O` [CBD, cannabidiol, reference compound], in data set [1], the AGP binding level result was “very high”. Besides, the HSA binding level result in data set [2] is “high”.

Take `CCCCCCC(C)(C)c1ccc([C@@H]2C[C@H](O)CC[C@H]2CCCO)c(O)c1` [CP55,940, reference compound]: the HSA binding level entry in data set [2] was “high”.
